Here are results for 20 compounds from patent US20260217701A1, “SELECTIVE BET INHIBITORS AND USES THEREOF” (Tay Therapeutics Limited, priority 2022, published 2026).

One assay has as its target T1, BRD4 BD1 (Homo sapiens, UniProt O60885).
T1 construct: HEK293 cells were transfected using NanoLuc-BRD4-BD1 or NanoLuc-BRD4-BD2 fusion vectors
The assay can be described thus: NanoBRET bromodomain assay, NanoLuc-BRD4-BD1 in HEK293 cells. The class given is binding. How it is done: Exemplary compounds of the disclosure are active against BRD4 BD2 and selective over BRD4 BD1. BRD4 is a representative example of the BET family, as the binding sites of all BET family members are structurally similar. […] IC50s and fold selectivity's are determined as described below and are represented in Table 1.
(§1) Plates were then incubated at 37° C.+5% CO2 incubator for 2 hours.
(§2) Fold Selectivity Calculated (IC50 BD1/IC50 BD2).
Background: BRET reads energy transfer from a luciferase to a nearby fluorophore.

The next assay has as its target T2, BRD4 BD2 (Homo sapiens, UniProt O60885).
T2 construct: HEK293 cells were transfected using NanoLuc-BRD4-BD1 or NanoLuc-BRD4-BD2 fusion vectors
The assay is described as follows: NanoBRET bromodomain assay, NanoLuc-BRD4-BD2 in HEK293 cells. The assay is classed as binding. The note with it: for Fold Selectivity BRD4 BD1/BD2: IC50 BD1/IC50 BD2, qualitative if an IC50 is at the upper limit. On the procedure:
as §1, §2

As a reminder, the IC50 is the midpoint of a concentration-inhibition curve. Lower therefore signals greater potency. In the case of `Cc1cc(-c2cc3c(-c4cc(=O)n(C)cc4-c4ccccc4C)cn(C)c(=O)c3[nH]2)cc(C)n1.Cl` [Example 27, 2-(2,6-dimethylpyridin-4-yl)-6-methyl-4-(1-methyl-2-oxo-5-(o-tolyl)-1,2-dihydropyridin-4-yl)-1,6-dihydro-7H-pyrrolo[2,3-c]pyridin-7-one hydrochloride], the IC50 was over 1000 nM against BRD4 BD1 and 10 to 50 nM at BRD4 BD2. Moreover, the “Fold Selectivity BRD4 BD1/BD2” value on BRD4 BD2 was “xxx (Fold >200 and ≤1000)”.

At BRD4 BD1, `Cc1cc(-c2cc3c(-c4cc(=O)n(C5CC5)cc4-c4ccccc4)cn(C)c(=O)c3[nH]2)cc(C)n1.Cl` [Example 28, 4-(1-cyclopropyl-2-oxo-5-phenyl-1,2-dihydropyridin-4-yl)-2-(2,6-dimethylpyridin-4-yl)-6-methyl-1,6-dihydro-7H-pyrrolo[2,3-c]pyridin-7-one hydrogen chloride] registered an IC50 of over 1000 nM. Also, at BRD4 BD2, the IC50 was under 10 nM and the “Fold Selectivity BRD4 BD1/BD2” value is given as “xxxx (Fold >1000)”.

For the compound `Cc1cc(-c2cc3c(-c4cc(=O)n(C)cc4-c4ccc(C#N)cc4)cn(C)c(=O)c3[nH]2)cc(C)n1.Cl` [Example 29, 4-(4-(2-(2,6-dimethylpyridin-4-yl)-6-methyl-7-oxo-6,7-dihydro-1H-pyrrolo[2,3-c]pyridin-4-yl)-1-methyl-6-oxo-1,6-dihydropyridin-3-yl)benzonitrile hydrogen chloride], the IC50 on BRD4 BD1 was over 1000 nM. At BRD4 BD2, the IC50 lay in the range of 10 to 50 nM; the “Fold Selectivity BRD4 BD1/BD2” value is “xxx (Fold >200 and ≤1000)”.

For the compound `Cc1cc(-c2cc3c(-c4cc(=O)n(C)cc4-c4ccc(F)cc4)cn(C)c(=O)c3[nH]2)cc(C)n1.Cl` [Example 30, 2-(2,6-dimethylpyridin-4-yl)-4-(5-(4-fluorophenyl)-1-methyl-2-oxo-1,2-dihydropyridin-4-yl)-6-methyl-1,6-dihydro-7H-pyrrolo[2,3-c]pyridin-7-one hydrochloride], the IC50 was over 1000 nM on BRD4 BD1 and under 10 nM against BRD4 BD2. Further, the “Fold Selectivity BRD4 BD1/BD2” value at BRD4 BD2 is “xxxx (Fold >1000)”.

`COc1ccc(-c2cn(C)c(=O)cc2-c2cn(C)c(=O)c3[nH]c(-c4cc(C)nc(C)c4)cc23)cc1.Cl` [Example 31, 2-(2,6-dimethylpyridin-4-yl)-4-(5-(4-methoxyphenyl)-1-methyl-2-ox0-1,2-dihydropyridin-4-yl)-6-methyl-1,6-dihydro-7H-pyrrolo[2,3-c]pyridin-7-one hydrogen chloride]: the IC50 on BRD4 BD1 was 500 to 1000 nM. At BRD4 BD2, the IC50 is under 10 nM; the “Fold Selectivity BRD4 BD1/BD2” value is “xxx (Fold >200 and ≤1000)”.

On to `Cc1cc(-c2cc3c(-c4cc(=O)n(C)cc4-c4ccccc4Cl)cn(C)c(=O)c3[nH]2)cc(C)n1.Cl` [Example 32, 4-(5-(2-chlorophenyl)-1-methyl-2-oxo-1,2-dihydropyridin-4-yl)-2-(2,6-dimethylpyridin-4-yl)-6-methyl-1,6-dihydro-7H-pyrrolo[2,3-c]pyridin-7-one hydrogen chloride], for which the IC50 against BRD4 BD1 is over 1000 nM. On BRD4 BD2, the IC50 is 10 to 50 nM; the “Fold Selectivity BRD4 BD1/BD2” value was “xxx (Fold >200 and ≤1000)”.

`Cc1cc(-c2cc3c(-c4cc(=O)n(C)cc4-c4ccc5c(c4)COC5)cn(C)c(=O)c3[nH]2)cc(C)n1.Cl` [Example 33, 4-(5-(1,3-dihydroisobenzofuran-5-yl)-1-methyl-2-oxo-1,2-dihydropyridin-4-yl)-2-(2,6-dimethylpyridin-4-yl)-6-methyl-1,6-dihydro-7H-pyrrolo[2,3-c]pyridin-7-one hydrochloride]: at BRD4 BD1, the IC50 was over 1000 nM. At BRD4 BD2, the IC50 was under 10 nM and the “Fold Selectivity BRD4 BD1/BD2” value is “xxxx (Fold >1000)”.

In the case of `Cn1cc(-c2ccccc2)c(-c2cn(C)c(=O)c3[nH]c(-c4cnn(C(F)(F)F)c4)cc23)cc1=O` [Example 34, 6-methyl-4-(1-methyl-2-oxo-5-phenyl-1,2-dihydropyridin-4-yl)-2-(1-(trifluoromethyl)-1H-pyrazol-4-yl)-1,6-dihydro-7H-pyrrolo[2,3-c]pyridin-7-one], the IC50 was over 1000 nM against BRD4 BD1 and under 10 nM against BRD4 BD2. Also, the “Fold Selectivity BRD4 BD1/BD2” value on BRD4 BD2 was “xxxx (Fold >1000)”.

At BRD4 BD1, `Cn1cc(-c2cccc(C3COC3)c2)c(-c2cn(C)c(=O)c3[nH]c(-c4ccc(F)cc4F)cc23)cc1=O` [Example 35, 2-(2,4-difluorophenyl)-6-methyl-4-(1-methyl-5-(3-(oxetan-3-yl)phenyl)-2-oxo-1,2-dihydropyridin-4-yl)-1,6-dihydro-7H-pyrrolo[2,3-c]pyridin-7-one] registered an IC50 of over 1000 nM. Besides, on BRD4 BD2, the IC50 is 10 to 50 nM; the “Fold Selectivity BRD4 BD1/BD2” value is “xxx (Fold >200 and ≤1000)”.

For `Cn1cc(-c2cccc(CN3CCOCC3)c2)c(-c2cn(C)c(=O)c3[nH]c(-c4ccc(F)cc4F)cc23)cc1=O` [Example 36, 2-(2,4-difluorophenyl)-6-methyl-4-(1-methyl-5-(3-(morpholinomethyl)phenyl)-2-oxo-1,2-dihydropyridin-4-yl)-1,6-dihydro-7H-pyrrolo[2,3-c]pyridin-7-one], the IC50 against BRD4 BD1 was over 1000 nM; at BRD4 BD2, 10 to 50 nM. Besides, the “Fold Selectivity BRD4 BD1/BD2” value at BRD4 BD2 is “xxx (Fold >200 and ≤1000)”.

On to `Cn1cc(-c2cccnc2)c(-c2cn(C)c(=O)c3[nH]c(-c4ccc(F)cc4F)cc23)cc1=O` [Example 37, 2-(2,4-difluorophenyl)-6-methyl-4-(1-methyl-6-oxo-1,6-dihydro-[3,3′-bipyridin]-4-yl)-1,6-dihydro-7H-pyrrolo[2,3-c]pyridin-7-one], for which the IC50 at BRD4 BD1 is over 1000 nM. At BRD4 BD2, the IC50 is 10 to 50 nM; the “Fold Selectivity BRD4 BD1/BD2” value was “xxx (Fold >200 and ≤1000)”.

On BRD4 BD1, `Cc1cccc(C)c1Oc1cn(C)c(=O)cc1-c1cn(C)c(=O)c2[nH]c(-c3ccccn3)cc12` [Example 38, 4-(5-(2,6-dimethylphenoxy)-1-methyl-2-oxo-1,2-dihydropyridin-4-yl)-6-methyl-2-(pyridin-2-yl)-1,6-dihydro-7H-pyrrolo[2,3-c]pyridin-7-one] came in with an IC50 of over 1000 nM. Moreover, on BRD4 BD2, the IC50 was 10 to 50 nM; the “Fold Selectivity BRD4 BD1/BD2” value is “xxx (Fold >200 and ≤1000)”.

On BRD4 BD1, `Cc1cccc(C)c1Oc1cn(C2CC2)c(=O)cc1-c1cn(C)c(=O)c2[nH]c(-c3ccc(F)cc3F)cc12` [Example 39, 4-(1-cyclopropyl-5-(2,6-dimethylphenoxy)-2-oxo-1,2-dihydropyridin-4-yl)-2-(2,4-difluorophenyl)-6-methyl-1,6-dihydro-7H-pyrrolo[2,3-c]pyridin-7-one] had an IC50 of over 1000 nM. In addition, on BRD4 BD2, the IC50 is under 10 nM and the “Fold Selectivity BRD4 BD1/BD2” value is given as “xxxx (Fold >1000)”.

`COc1cccc(-c2cc3c(-c4cc(=O)n(C5CC5)cc4Oc4c(C)cccc4C)cn(C)c(=O)c3[nH]2)c1F` [Example 40, 4-(1-cyclopropyl-5-(2,6-dimethylphenoxy)-2-oxo-1,2-dihydropyridin-4-yl)-2-(2-fluoro-3-methoxyphenyl)-6-methyl-1,6-dihydro-7H-pyrrolo[2,3-c]pyridin-7-one] came in with an IC50 on BRD4 BD1 of over 1000 nM. At BRD4 BD2, the IC50 is 10 to 50 nM; the “Fold Selectivity BRD4 BD1/BD2” value was “xxx (Fold >200 and ≤1000)”.

With `CCCn1cc(-c2cc3c(-c4cc(=O)n(C)cc4Oc4c(C)cccc4C)cn(C)c(=O)c3[nH]2)cn1` [Example 41, 4-(5-(2,6-dimethylphenoxy)-1-methyl-2-oxo-1,2-dihydropyridin-4-yl)-6-methyl-2-(1-propyl-1H-pyrazol-4-yl)-1,6-dihydro-7H-pyrrolo[2,3-c]pyridin-7-one], the IC50 at BRD4 BD1 was over 1000 nM. On BRD4 BD2, the half-inhibitory concentration (IC50) is under 10 nM and the “Fold Selectivity BRD4 BD1/BD2” value is “xxxx (Fold >1000)”.

On to `Cn1cc(-c2ccccc2)c(-c2cn(C)c(=O)c3[nH]c(-c4ccccc4F)cc23)cc1=O` [Example 42, 2-(2-fluorophenyl)-6-methyl-4-(1-methyl-2-oxo-5-phenyl-1,2-dihydropyridin-4-yl)-1,6-dihydro-7H-pyrrolo[2,3-c]pyridin-7-one], for which the IC50 at BRD4 BD1 was over 1000 nM. For the same compound, at BRD4 BD2, the IC50 was under 10 nM and the “Fold Selectivity BRD4 BD1/BD2” value is “xxxx (Fold >1000)”.

In the case of `Cn1cc(-c2ccccc2)c(-c2cn(C)c(=O)c3[nH]c(-c4ccc(F)cc4F)cc23)cc1=O` [Example 43, 2-(2,4-difluorophenyl)-6-methyl-4-(1-methyl-2-oxo-5-phenyl-1,2-dihydropyridin-4-yl)-1,6-dihydro-7H-pyrrolo[2,3-c]pyridin-7-one], the figures for the IC50 at BRD4 BD1 and at BRD4 BD2 were over 1000 nM and under 10 nM, respectively. Also, the “Fold Selectivity BRD4 BD1/BD2” value on BRD4 BD2 is recorded as “xxxx (Fold >1000)”.

In turn, `Cn1cc(-c2ccccc2)c(-c2cn(C)c(=O)c3[nH]c(-c4ccc(C5COC5)cc4)cc23)cc1=O` [Example 44, 6-methyl-4-(1-methyl-2-oxo-5-phenyl-1,2-dihydropyridin-4-yl)-2-(4-(oxetan-3-yl)phenyl)-1,6-dihydro-7H-pyrrolo[2,3-c]pyridin-7-one] displayed an IC50 against BRD4 BD1 of over 1000 nM. Moreover, on BRD4 BD2, the IC50 was under 10 nM and the “Fold Selectivity BRD4 BD1/BD2” value is given as “xxxx (Fold >1000)”.

With `Cn1cc(-c2ccccc2)c(-c2cn(C)c(=O)c3[nH]c(-c4ccc(S(C)(=O)=O)cc4)cc23)cc1=O` [Example 45, 6-methyl-4-(1-methyl-2-oxo-5-phenyl-1,2-dihydropyridin-4-yl)-2-(4-(methylsulfonyl)phenyl)-1,6-dihydro-7H-pyrrolo[2,3-c]pyridin-7-one], the IC50 against BRD4 BD1 was over 1000 nM. For the same compound, at BRD4 BD2, the IC50 was under 10 nM and the “Fold Selectivity BRD4 BD1/BD2” value is “xxxx (Fold >1000)”.

The compound `COCc1ccc(-c2cc3c(-c4cc(=O)n(C)cc4-c4ccccc4)cn(C)c(=O)c3[nH]2)cc1` [Example 46, 2-(4-(methoxymethyl)phenyl)-6-methyl-4-(1-methyl-2-oxo-5-phenyl-1,2-dihydropyridin-4-yl)-1,6-dihydro-7H-pyrrolo[2,3-c]pyridin-7-one] displayed an IC50 at BRD4 BD1 of over 1000 nM. At BRD4 BD2, the IC50 is under 10 nM and the “Fold Selectivity BRD4 BD1/BD2” value is “xxxx (Fold >1000)”.
